From publication PMC6131691 (Chirality, 2012)
Read-outs that look alike come from different tables or passages of the source. Marks after values point to notes of the source that are not given here.

Assays:
[1] = tested on: human-derived 1321N1 astrocytoma cells; conditions: read-out: IC50, inhibition of mitogenesis; cited from earlier work
[2] = tested on: SULT1A3; test: cDNA-expressed SULT isoform screen, SULT1A3; conditions: relative to SULT1A1*1, SULT1A1*2, SULT1E1
[3] = tested on: 1321N1 tumors; conditions: tumors implanted in the flank of SKID mice; cited from earlier work
[4] = tested on: human intestinal S9 fractions (mixture of SULT enzymes); test: Kinetics of sulfation of MF stereoisomers by human intestinal S9 fractions; conditions: read-out: Km (Michaelis constant) of sulfation; human intestinal S9 1 mg/ml, 200 µM PAPS, pH 7.4, 60 min; mean ± SE
[5] = tested on: SULT isoforms; test: cDNA-expressed SULT isoform screen, comparison of stereoisomers across isoforms; format: in vitro ADME, human; conditions: in each of the SULT isoforms
[6] = humans; cited from earlier work
[7] = tested on: SULT1A1*1
[8] = tested on: human intestinal S9 fractions (mixture of SULT enzymes); conditions: pH 7.4
[9] = tested on: human intestinal S9 fractions (mixture of SULT enzymes); conditions: for Reduction of (R,R)-MF conjugation at equimolar concentrations: equimolar with 50 µM [3H]-(R,R)-MF
[10] = tested on: SULT1A1*2
[11] = tested on: β2-AR; conditions: relative to (R,R)-MF; ref unpublished data; cited from earlier work
[12] = tested on: SULT1A3
[13] = tested on: SULT1E1

COc1ccc(C[C@@H](C)NC[C@H](O)c2cc(O)cc(O)c2)cc1 [(R,R)-MF, (R,R)-4-methoxyfenoterol]
IC50 [1]: 0.00017 µM
SULT1A3-mediated conjugation, greater than the sulfation by the other isoforms [2]: 1.5- to 2 fold
Growth of 1321N1 tumors [3]: retards the growth
Km [4]: 62 ± 1.27 µM
Sulfation rate compared with (S,S)-MF, (R,S)-MF and (S,R)-MF [5]: significantly (P < 0.0001) lower

CC(Cc1ccc(O)cc1)NCC(O)c1cc(O)cc(O)c1 [(R,R;S,S)-Fen, fenoterol]
Oral bioavailability [6]: ~ 2%

COc1ccc(CC(C)NCC(O)c2cc(O)cc(O)c2)cc1 [(R,S)-MF, 4-methoxyfenoterol]
SULT1A1*1-catalyzed sulfation, greater than SULT1A3 and SULT1E1 [7]: 1.5 fold
Km [8]: 68.5 ± 3.2 µM
IC50 [9]: > 400 µM
Reduction of (R,R)-MF conjugation at equimolar concentrations ([9]; human intestinal S9): little effect
SULT1A1*2-catalyzed sulfation, greater than SULT1A3 and SULT1E1 [10]: 1.5 fold

COc1ccc(CC(C)NCC(O)c2cc(O)cc(O)c2)cc1 [(S,R)-MF, 4-methoxyfenoterol]
β2-AR agonist activity as share of that of (R,R)-MF [11]: less than 5%
Km [8]: 52 µM
Reduction in the production of (R,R)-MF sulfate ([9]; 2:1 ratio of (S,R)-MF/(R,R)-MF, human intestinal S9): 61%
Reduction of (R,R)-MF conjugation at equimolar concentrations ([9]; human intestinal S9): ~ 40%
SULT1A3-mediated conjugation, greater than the sulfation by the other isoforms [12]: 1.5- to 2 fold

COc1ccc(CC(C)NCC(O)c2cc(O)cc(O)c2)cc1 [(S,S)-MF, 4-methoxyfenoterol]
Km [8]: 89 µM
Km (Michaelis constant) of sulfation [8]: 89.21 ^a ± 2.59 µM
IC50 [9]: > 200 µM
Reduction of (R,R)-MF conjugation at equimolar concentrations ([9]; human intestinal S9): little effect
Activity of SULT1E1, lower than SULT1A1*1, SULT1A1*2 and SULT1A3 [13]: 1.3 fold
